Counter-ions that a name gives are not always drawn.
How the values were obtained:
CDK12/CycK = CDK12/CycK (Homo sapiens, UniProt Q9NYV4); experiment: Inhibition of CDK12 (ADP-Glo kinase assay); format: biochemical; conditions: 60 nM CDK12/CycK, 30 minutes pre-incubation, 1 μM ATP, 0.5 μM RBER-IRStide substrate, 1 h at 25° C., read-out: CDK12/cyclin K IC50
How it was run: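 Compounds pre-incubated 30 min with 60 nM CDK12/CycK in HEPES pH 7.5 buffer with Mg2+/Mn2+, 1% DMSO final. Reaction started with 1 μM ATP and 0.5 μM RBER-IRStide, run 1 h at 25 °C; ADP-Glo luminescence, no-kinase blank subtracted, IC50 from sigmoidal fit of % inhibition.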

DM1 fibroblasts = experiment: Nuclear foci assay; format: cell-based; conditions: Fibroblast; DM1 fibroblasts treated for 24 hours, 11 point dilution 20 μM-19 nM, in situ hybridisation with cy3 labelled CAG10 probe
Experimental: DM1 fibroblasts were treated with compounds in an 11 point dilution series from 20 μM-19 nM for 24 hours. Following treatment, fluorescent in situ hybridisation was performed with a cy3 labelled CAG10 probe, to visualize nuclear foci and cells were analysed on a Molecular Devices plate reader with customised MetaExpress software (Ketley, A. et al. (2014). Hum Mol Genet, 23: 1551-1562). Compounds that reduced nuclear foci in a concentration dependent manner, compared to DMSO treated cells were identified.

Chain of CDK12/CycK (Q9NYV4 whole entry): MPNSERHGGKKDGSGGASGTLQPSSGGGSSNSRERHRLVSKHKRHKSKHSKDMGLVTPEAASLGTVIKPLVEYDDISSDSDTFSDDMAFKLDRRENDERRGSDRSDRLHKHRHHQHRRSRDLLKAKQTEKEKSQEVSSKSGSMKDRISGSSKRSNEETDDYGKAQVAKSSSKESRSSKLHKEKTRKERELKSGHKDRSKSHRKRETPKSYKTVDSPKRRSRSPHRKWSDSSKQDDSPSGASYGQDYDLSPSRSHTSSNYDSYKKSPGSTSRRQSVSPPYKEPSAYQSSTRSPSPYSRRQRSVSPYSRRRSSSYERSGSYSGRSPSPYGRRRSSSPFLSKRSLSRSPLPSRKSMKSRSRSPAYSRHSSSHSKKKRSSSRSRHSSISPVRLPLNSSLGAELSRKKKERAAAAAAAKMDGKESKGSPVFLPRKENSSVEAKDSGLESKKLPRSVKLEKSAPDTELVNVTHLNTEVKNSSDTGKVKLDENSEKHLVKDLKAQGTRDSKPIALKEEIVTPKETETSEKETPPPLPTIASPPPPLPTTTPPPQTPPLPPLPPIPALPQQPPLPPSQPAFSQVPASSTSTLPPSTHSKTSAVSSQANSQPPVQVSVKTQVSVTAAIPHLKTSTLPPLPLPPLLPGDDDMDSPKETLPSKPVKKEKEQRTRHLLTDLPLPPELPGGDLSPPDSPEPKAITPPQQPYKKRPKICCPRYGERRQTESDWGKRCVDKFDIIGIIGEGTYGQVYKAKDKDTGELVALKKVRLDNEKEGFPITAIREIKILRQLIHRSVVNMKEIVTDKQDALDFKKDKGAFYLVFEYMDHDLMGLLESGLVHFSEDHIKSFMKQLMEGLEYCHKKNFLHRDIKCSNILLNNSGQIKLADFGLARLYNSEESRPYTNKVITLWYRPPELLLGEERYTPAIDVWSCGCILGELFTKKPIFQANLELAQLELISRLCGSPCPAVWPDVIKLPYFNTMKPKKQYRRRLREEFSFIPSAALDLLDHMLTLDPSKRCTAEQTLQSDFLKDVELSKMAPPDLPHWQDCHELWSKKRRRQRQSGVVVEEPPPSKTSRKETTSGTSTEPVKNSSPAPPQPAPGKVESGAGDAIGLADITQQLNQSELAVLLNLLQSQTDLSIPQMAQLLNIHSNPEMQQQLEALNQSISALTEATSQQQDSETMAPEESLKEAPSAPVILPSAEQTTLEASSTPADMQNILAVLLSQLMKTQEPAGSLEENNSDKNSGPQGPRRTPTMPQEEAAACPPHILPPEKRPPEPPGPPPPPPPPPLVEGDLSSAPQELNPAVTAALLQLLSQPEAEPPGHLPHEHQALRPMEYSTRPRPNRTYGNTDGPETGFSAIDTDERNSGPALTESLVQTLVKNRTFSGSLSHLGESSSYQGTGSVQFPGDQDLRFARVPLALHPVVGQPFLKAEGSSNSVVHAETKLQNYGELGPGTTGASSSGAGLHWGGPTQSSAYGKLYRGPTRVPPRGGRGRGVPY
Chain of CDK12/CycK (O75909 whole entry partner): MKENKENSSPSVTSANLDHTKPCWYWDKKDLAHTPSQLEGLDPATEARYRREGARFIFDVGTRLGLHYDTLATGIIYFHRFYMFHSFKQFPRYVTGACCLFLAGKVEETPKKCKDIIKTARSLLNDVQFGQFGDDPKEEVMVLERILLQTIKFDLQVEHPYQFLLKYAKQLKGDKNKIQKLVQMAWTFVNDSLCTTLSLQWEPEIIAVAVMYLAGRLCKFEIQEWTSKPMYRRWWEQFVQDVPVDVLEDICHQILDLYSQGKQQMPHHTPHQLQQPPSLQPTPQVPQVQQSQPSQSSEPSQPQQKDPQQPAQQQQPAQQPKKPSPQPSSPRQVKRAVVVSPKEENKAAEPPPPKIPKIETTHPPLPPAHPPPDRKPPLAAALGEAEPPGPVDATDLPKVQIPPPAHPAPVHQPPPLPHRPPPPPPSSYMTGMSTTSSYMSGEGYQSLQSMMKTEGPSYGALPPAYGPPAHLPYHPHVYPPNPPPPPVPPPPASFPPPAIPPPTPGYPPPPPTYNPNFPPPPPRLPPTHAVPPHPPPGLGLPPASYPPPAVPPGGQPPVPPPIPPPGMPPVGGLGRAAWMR

| IC50 (CDK12/CycK) | SMILES | IC50 (DM1 fibroblasts) |
| --- | --- | --- |
| < 0.1 µM | C=CC(=O)N1CCOC[C@@H]1C(=O)NCCc1cc2c(-c3cnn4ncccc34)ccnc2[nH]1 [Example 63, (R)-4-Acryloyl-N-(2-(4-(pyrazolo[1,5-b]pyridazin-3-yl)-1H-pyrrolo[2,3-b]pyridin-2-yl)ethyl)morpholine-3-carboxamide] | < 1 µM |
| 0.1 to 1 µM | CN(C)C/C=C/C(=O)N1CCC(CC(=O)N2CCC(c3cc4c(-c5cnn6ncccc56)ccnc4[nH]3)C2)CC1 (stereo not shown) [Example 69, (E)-4-(Dimethylamino)-1-(4-(2-oxo-2-(3-(4-(pyrazolo[1,5-b]pyridazin-3-yl)-1H-pyrrolo[2,3-b]pyridin-2-yl)pyrrolidin-1-yl)ethyl)piperidin-1-yl)but-2-en-1-one] | 10 to 100 µM |
| 0.1 to 1 µM | C[C@@H](Cl)C(=O)N1CCC[C@@H]1C(=O)N1CCC(c2cc3c(-c4cnn5ncccc45)ccnc3[nH]2)C1 (stereo partly drawn) [Example 70, (2R)-2-Chloro-1-((2R)-2-(3-(4-(pyrazolo[1,5-b]pyridazin-3-yl)-1H-pyrrolo[2,3-b]pyridin-2-yl)pyrrolidine-1-carbonyl)pyrrolidin-1-yl)propan-1-one] | 1 to 10 µM |
| 0.1 to 1 µM | CN(C)C/C=C/C(=O)N1CC[C@@H](OCC(=O)N2CCC(c3cc4c(-c5cnn6ncccc56)ccnc4[nH]3)C2)C1 (stereo partly drawn) [Example 71, (E)-4-(Dimethylamino)-1-((3R)-3-(2-oxo-2-(3-(4-(pyrazolo[1,5-b]pyridazin-3-yl)-1H-pyrrolo[2,3-b]pyridin-2-yl)pyrrolidin-1-yl)ethoxy)pyrrolidin-1-yl)but-2-en-1-one] | 1 to 10 µM |
| 0.1 to 1 µM | CN(C)C/C=C/C(=O)N1CCC[C@@H](C(=O)N2CCC(c3cc4c(-c5cnn6ncccc56)ccnc4[nH]3)C2)C1 (stereo partly drawn) [Example 72, (E)-4-(Dimethylamino)-1-((3R)-3-(3-(4-(pyrazolo[1,5-b]pyridazin-3-yl)-1H-pyrrolo[2,3-b]pyridin-2-yl)pyrrolidine-1-carbonyl)piperidin-1-yl)but-2-en-1-one] | 1 to 10 µM |
| 1 to 30 µM | CCC(=O)N1CCC[C@H]1C(=O)NCCc1cc2c(-c3cnn4ncccc34)ccnc2[nH]1 [Example 73, (S)-1-Propionyl-N-(2-(4-(pyrazolo[1,5-b]pyridazin-3-yl)-1H-pyrrolo[2,3-b]pyridin-2-yl)ethyl)pyrrolidine-2-carboxamide] | 10 to 100 µM |
| < 0.1 µM | C=CC(=O)Nc1ccc(C(=O)NCCc2cc3c(-c4cnn5ncccc45)ccnc3[nH]2)cc1 [Example 76, 4-Acrylamido-N-(2-(4-(pyrazolo[1,5-b]pyridazin-3-yl)-1H-pyrrolo[2,3-b]pyridin-2-yl)ethyl)benzamide] | < 1 µM |
| 0.1 to 1 µM | CC#CC(=O)N1CCC[C@H]1C(=O)NCCc1cc2c(-c3cnn4ncccc34)ccnc2[nH]1 [Example 83, (S)-1-(But-2-ynoyl)-N-(2-(4-(pyrazolo[1,5-b]pyridazin-3-yl)-1H-pyrrolo[2,3-b]pyridin-2-yl)ethyl)pyrrolidine-2-carboxamide] | 1 to 10 µM |
| 1 to 30 µM | CN(C)C/C=C/C(=O)N1CCC[C@H]1C(=O)NCCc1cc2c(-c3cnn4ncccc34)ccnc2[nH]1 [Example 84, (S,E)-1-(4-(Dimethylamino)but-2-enoyl)-N-(2-(4-(pyrazolo[1,5-b]pyridazin-3-yl)-1H-pyrrolo[2,3-b]pyridin-2-yl)ethyl)pyrrolidine-2-carboxamide] | 10 to 100 µM |
| < 0.1 µM | C=CC(=O)N1CCCC[C@H]1C(=O)NCCc1cc2c(-c3cnn4ncccc34)ccnc2[nH]1 [Example 92, (S)-1-Acryloyl-N-(2-(4-(pyrazolo[1,5-b]pyridazin-3-yl)-1H-pyrrolo[2,3-b]pyridin-2-yl)ethyl)piperidine-2-carboxamide] | 1 to 10 µM |
| 0.1 to 1 µM | C=CC(=O)N1CCC[C@H]1C(=O)NCCc1cc2c(-c3cnn(C)c3)ccnc2[nH]1 [Example 94, (S)-1-Acryloyl-N-(2-(4-(1-methyl-1H-pyrazol-4-yl)-1H-pyrrolo[2,3-b]pyridin-2-yl)ethyl)pyrrolidine-2-carboxamide] | 10 to 100 µM |
| 0.1 to 1 µM | C=CC(=O)Nc1cccc(C(=O)N2CCN(Cc3cc4c(-c5cnn6ncccc56)ccnc4[nH]3)CC2)c1 [Example 111, N-(3-(4-((4-(Pyrazolo[1,5-b]pyridazin-3-yl)-1H-pyrrolo[2,3-b]pyridin-2-yl)methyl)piperazine-1-carbonyl)phenyl)acrylamide] | 1 to 10 µM |
| 0.1 to 1 µM | C=CC(=O)Nc1ccc(C(=O)N2CCN(Cc3cc4c(-c5cnn6ncccc56)ccnc4[nH]3)CC2)cc1 [Example 112, N-(4-(4-((4-(Pyrazolo[1,5-b]pyridazin-3-yl)-1H-pyrrolo[2,3-b]pyridin-2-yl)methyl)piperazine-1-carbonyl)phenyl)acrylamide] | 1 to 10 µM |
| 1 to 30 µM | C=CC(=O)N1CCC[C@H]1C(=O)N1CCN(Cc2cc3c(-c4cnn5ncccc45)ccnc3[nH]2)CC1 [Example 113, (S)-1-(2-(4-((4-(Pyrazolo[1,5-b]pyridazin-3-yl)-1H-pyrrolo[2,3-b]pyridin-2-yl)methyl)piperazine-1-carbonyl)pyrrolidin-1-yl)prop-2-en-1-one] | 10 to 100 µM |
| < 0.1 µM | C=CC(=O)Nc1ccc(C(=O)N2CCC(c3cc4c(-c5cnn6ncccc56)ccnc4[nH]3)C2)cc1 (stereo not shown) [Example 126, N-(4-(3-(4-(Pyrazolo[1,5-b]pyridazin-3-yl)-1H-pyrrolo[2,3-b]pyridin-2-yl)pyrrolidine-1-carbonyl)phenyl)acrylamide] | < 1 µM |
| < 0.1 µM | CN(C)C/C=C/C(=O)Nc1ccc(C(=O)N2CCC(c3cc4c(-c5cnn6ncccc56)ccnc4[nH]3)C2)cc1 (stereo not shown) [Example 127, (E)-4-(Dimethylamino)-N-(4-(3-(4-(pyrazolo[1,5-b]pyridazin-3-yl)-1H-pyrrolo[2,3-b]pyridin-2-yl)pyrrolidine-1-carbonyl)phenyl)but-2-enamide Formate Salt] | < 1 µM |
| < 0.1 µM | C=CC(=O)Nc1ccc(C(=O)N2CCC(c3cc4c(-c5c[nH]c6ccccc56)ccnc4[nH]3)C2)cc1 (stereo not shown) [Example 129, N-(4-(3-(4-(1H-Indol-3-yl)-1H-pyrrolo[2,3-b]pyridin-2-yl)pyrrolidine-1-carbonyl)phenyl)acrylamide] | 1 to 10 µM |
| < 0.1 µM | C=CC(=O)Nc1cccc(C(=O)N2CCC(c3cc4c(-c5cnn6ncccc56)ccnc4[nH]3)C2)c1 (stereo not shown) [Example 141, N-(3-(3-(4-(Pyrazolo[1,5-b]pyridazin-3-yl)-1H-pyrrolo[2,3-b]pyridin-2-yl)pyrrolidine-1-carbonyl)phenyl)acrylamide] | < 1 µM |
| < 0.1 µM | O=C(CCl)Nc1ccc(C(=O)N2CCC(c3cc4c(-c5cnn6ncccc56)ccnc4[nH]3)C2)cc1 (stereo not shown) [Example 144, 2-Chloro-N-(4-(3-(4-(pyrazolo[1,5-b]pyridazin-3-yl)-1H-pyrrolo[2,3-b]pyridin-2-yl)pyrrolidine-1-carbonyl)phenyl)acetamide] | < 1 µM |
| < 0.1 µM | O=C(CCl)Nc1cccc(C(=O)N2CCC(c3cc4c(-c5cnn6ncccc56)ccnc4[nH]3)C2)c1 (stereo not shown) [Example 145, 2-Chloro-N-(3-(3-(4-(pyrazolo[1,5-b]pyridazin-3-yl)-1H-pyrrolo[2,3-b]pyridin-2-yl)pyrrolidine-1-carbonyl)phenyl)acetamide] | < 1 µM |
| < 0.1 µM | C#CC(=O)Nc1cccc(C(=O)N2CCC(c3cc4c(-c5cnn6ncccc56)ccnc4[nH]3)C2)c1 (stereo not shown) [Example 146, N-(3-(3-(4-(Pyrazolo[1,5-b]pyridazin-3-yl)-1H-pyrrolo[2,3-b]pyridin-2-yl)pyrrolidine-1-carbonyl)phenyl)propiolamide] | < 1 µM |
| < 0.1 µM | C=CC(=O)Nc1cccc(C(=O)N2CC[C@H](c3cc4c(-c5cnn6ncccc56)ccnc4[nH]3)C2)c1 [Example 151, (S)—N-(3-(3-(4-(Pyrazolo[1,5-b]pyridazin-3-yl)-1H-pyrrolo[2,3-b]pyridin-2-yl)pyrrolidine-1-carbonyl)phenyl)acrylamide] | < 1 µM |
| < 0.1 µM | O=C([C@H]1CCCN1C(=O)CCl)N1CCC(c2cc3c(-c4cnn5ncccc45)ccnc3[nH]2)C1 (stereo partly drawn) [Example 156, 2-Chloro-1-((2R)-2-(3-(4-(pyrazolo[1,5-b]pyridazin-3-yl)-1H-pyrrolo[2,3-b]pyridin-2-yl)pyrrolidine-1-carbonyl)pyrrolidin-1-yl)ethan-1-one] | < 1 µM |
| < 0.1 µM | O=C(CCl)Nc1cccc(C(=O)N2CC[C@@H](c3cc4c(-c5cnn6ncccc56)ccnc4[nH]3)C2)c1 [Example 159, (R)-2-Chloro-N-(3-(3-(4-(pyrazolo[1,5-b]pyridazin-3-yl)-1H-pyrrolo[2,3-b]pyridin-2-yl)pyrrolidine-1-carbonyl)phenyl)acetamide] | < 1 µM |
| < 0.1 µM | O=C(CCl)Nc1cccc(C(=O)N2CC[C@H](c3cc4c(-c5cnn6ncccc56)ccnc4[nH]3)C2)c1 [Example 160, (S)-2-Chloro-N-(3-(3-(4-(pyrazolo[1,5-b]pyridazin-3-yl)-1H-pyrrolo[2,3-b]pyridin-2-yl)pyrrolidine-1-carbonyl)phenyl)acetamide] | < 1 µM |
| 0.1 to 1 µM | C=CC(=O)N1CCC[C@H]1C(=O)N1CC[C@@H](c2cc3c(-c4cnn5ncccc45)ccnc3[nH]2)C1 [Example 161, 1-((S)-2-((R)-3-(4-(Pyrazolo[1,5-b]pyridazin-3-yl)-1H-pyrrolo[2,3-b]pyridin-2-yl)pyrrolidine-1-carbonyl)pyrrolidin-1-yl)prop-2-en-1-one] | < 1 µM |

Reference: patent US11407767B2, “Heterocyclyl substituted pyrrolopyridines that are inhibitors of the CDK12 kinase” (The University of Nottingham, priority 2017, dated 2022)
